Key:
Format in all cases: cell-based
Kv7.1/KCNE1 [1] = molecular target: T1, Kv7.1/KCNE1 (Homo sapiens, UniProt P15382+P51787); assay: Two electrode voltage clamp of Kv7.1/KCNE1 currents in Xenopus oocytes; settings: 10 µM; percent change in current amplitude at end of pulse to +40 mV
Protocol: Template cDNAs (wildtype or mutant human Kv7.1 in pSGEM, wildtype human KCNE1 in pSP64) were linearized with a suitable restriction enzyme (Nhe I/pSGEM, Eco RI/pSP64). cRNA was synthesized from 1 μg linearized cDNA by in vitro transcription (mMessage mMachine T7 or SP6 kit, Ambion, Life Technologies Darmstadt, Germany). cRNA concentrations were determined by photometry (Nanodrop, Peqlab, Erlangen, Germany) and cRNA quality was checked by agarose gel electrophoresis.
Oocytes were commercially obtained from EcoCyte Bioscience (Castrop-Rauxel, Germany). Injection of stage 4 or 5 oocytes was performed using a nanoliter injector 2000 (WPI, Berlin, Germany). For standard pharmacological measurements, each oocyte was injected with 5 ng Kv7.1 cRNA alone or with 1 ng KCNE1 cRNA. To investigate the influence of KCNE1 on AC-1 sensitivity of Kv7.1 tetramers, 5 ng Kv7.1 cRNA was injected with different amounts of KCNE1 cRNA (0 ng, 0.005 ng, 0.05 ng, 0.5 ng and 5 ng). Injected oocytes were maintained in an incubator at 17 °C for 4–5 days in standard Barth solution (EcoCyte Bioscience, Castrop-Rauxel, Germany) supplemented with 90 μg ml^−1 theophylline, 63 μg ml^−1 penicillin, 40 μg ml^−1 streptomycin, and 100 μg ml^−1 gentamycin until used for two electrode voltage clamp (TEVC) measurements.
TEVC measurements were performed using a TurboTec-10CD amplifier (npi Electronic, Tamm, Germany) and an ITC-16 AD/DA-interface (Instrutech Corporation, Port Washington, New York, USA). Pulse and PulseFit software (HEKA, Lambrecht/Pfalz, Germany) was used for data acquisition and analysis. During TEVC recordings, oocytes were constantly perfused with control solution (ND96, containing in mM: 96 NaCl, 4 KCl, 1.8 CaCl2, 1 MgCl2, 5 mM HEPES, pH 7.6 supplemented 0.1–0.3% DMSO). AC solutions were freshly prepared in ND96 from a 10 mM DMSO stock solution. Glass capillaries were pulled to a fine point to produce current and voltage electrodes that were back-filled with 3 M KCl. When filled with this solution, electrode resistances ranged from 0.5–1.5 MΩ. Different voltage pulse protocols were used as follows: (1) To study the inhibitory effect of different AC derivatives, Kv7.1/KCNE1 currents were elicited by repetitive 7 s pulses to +40 mV applied every 30 s from a holding potential of −80 mV. (2) To analyse the voltage dependence of channel activation, currents were elicited by 10 s pulses to test voltages between −100 and +60 mV, applied in 20 mV increments from a holding potential of −80 mV. Tail currents were recorded at −120 mV. For control we always expressed KCNE1 alone along mutant channels and mutant currents were only taken into account when it reached at least 2.5- to 3-fold the size of the background Xenopus-Kv7.1/hKCNE1 currents.
Electrophysiological data were analysed using PulseFit software (HEKA, Lambrecht/Pfalz, Germany) and GraphPad Prism (GraphPad Software, Inc., La Jolla, California, USA). Channel inhibition was determined as reduction of whole cell current amplitude at the end of a 7 s test pulse to +40 mV. The concentration of compound that caused half-maximal inhibition (IC50) were determined using the Hill equation: Idrug/Imax=1/(1+[C/IC50]^H), where Idrug is the current amplitude in the presence of the drug, Imax is the current amplitude before drug application, C is the drug concentration and H is the Hill coefficient.

Kv7.1/KCNE1 [2] = molecular target: T1, Kv7.1/KCNE1; assay: Current inhibition in CHO cells stably expressing Kv7.1/KCNE1
Protocol: Figure 5 PAL-based approach to identify AC binding site. (a) Schematic view of the PAL-based approach to investigate the binding site of AC-1. (b) Concentration-response curve for AC-10, the UV-active diazirine derivate of AC-1. The inhibitory effect of AC-10 was determined in CHO cells stably expressing Kv7.1/KCNE1. Inhibition was determined as percent change in current amplitude at the end of the depolarizing test pulse to +40 mV (±s.e.m.). (c) A new cDNA-construct (Kv7.1myc-2A-KCNE1myc in pXOOM) allows for functional expression of myc-tagged Kv7.1 and KCNE1 in HEK293T cells. In this construct, cDNAs of Kv7.1 and KCNE1 are linked via the T2A peptide sequence, which mediates co-translational protein cleavage. (d) Western blot analysis of affinity purified Kv7.1 and KCNE1 proteins. Kv7.1myc was purified using myc-agarose beads KCNE1 was purified using anti-KCNE1 coupled protein-A-sepharose beads (right). In both western blots, ‘+' indicates transfected cells, ‘−' indicates non-transfected control cells. Antibodies used for affinity purification are detected in ‘+' and ‘−'. […] It should be noted, that KCNE1, as a myc-tagged protein, should also be purified using the myc-agarose beads. […] Thus, KCNE1 expression was instead proven using the KCNE1 antibody. (e) Functional expression of Kv7.1myc-2A-KCNE1myc in HEK293T cells (scale bars indicate 1 nA, 1 s).

homomeric Kv7.1 channels = assay: AC-10 on homomeric Kv7.1 channels
Kv7.1/KCNE1 channels = assay: Reversibility of AC-10 current inhibition by washout, with or without UV irradiation

Compound | inhibition at 10 µM (Kv7.1/KCNE1 [1]) [%] | also measured
Cc1cc(Cl)ccc1OC(C)(C)C(=O)NC1[C@@H]2CC3C[C@H]1CC(N)(C3)C2 (stereo partly shown) [AC-4, N-[(1 R,3 S)-5-amino-2-adamantyl]-2-(4-chloro-2-methyl-phenoxy)-2-methyl-propanamide] | 4.2 ± 6.1 | 
CC(C)(Oc1cccc(C(F)(F)F)c1)C(=O)NC1C2CC3CC1CC(NS(C)(=O)=O)(C3)C2 (stereo not shown) [AC-3] | 73.7 ± 2.9 | 
Cc1cc(Cl)ccc1OC(C)(C)C(=O)NC1[C@@H]2CC3C[C@H]1CC(NC(=O)CCC1(C)N=N1)(C3)C2 (stereo partly shown) [AC-10, 2-(4-chloro-2-methyl-phenoxy)-2-methyl-N-[(1 R,3 S)-5-[3-(3-methyldiazirin-3-yl)propanoylamino]-2-adamantyl]propanamide] |  | Hill-coeff. (Kv7.1/KCNE1 [2]): 1.7; IC50 (Kv7.1/KCNE1 [2]; +40 mV): 16 nM; inhibition of homomeric Kv7.1 channels (homomeric Kv7.1 channels): did not inhibit; inhibition after 38 min washout (Kv7.1/KCNE1 channels; after UV irradiation): 75%; inhibition after 38 min washout (Kv7.1/KCNE1 channels; non UV-activated): 40%
CCOC(=O)NC12CC3CC(C1)C(NC(=O)C(C)(C)Oc1ccc(Cl)cc1C)C(C3)C2 (stereo not shown) [AC-8] | 74.5 ± 6.2 | 
Cc1cc(Cl)ccc1OC(C)(C)C(=O)NC1C2CC3CC1CC(NS(C)(=O)=O)(C3)C2 (stereo not shown) [AC-2] | 86.8 ± 3 | 
Cc1cc(Cl)ccc1OC(C)(C)C(=O)NC1C2CC3CC1CC(NS(=O)(=O)N(C)C)(C3)C2 (stereo not shown) [AC-7] | 38 ± 4.4 | 
Cc1cc(Cl)ccc1OC(C)(C)C(=O)NC1C2CC3CC1CC(NC(=O)CC(C)C)(C3)C2 (stereo not shown) [AC-9] | 78.6 ± 3.3 | 
Cc1cc(Cl)ccc1OC(C)(C)C(=O)NC1C2CC3CC1CC(O)(C3)C2 (stereo not shown) [AC-5] | 40.9 ± 1.4 | 
Cc1cc(Cl)ccc1OC(C)(C)C(=O)NC1C2CC3CC1CC(C(=O)O)(C3)C2 (stereo not shown) [AC-6] | 64.6 ± 6.6 | 

— paper PMC5064022, “KCNE1 induces fenestration in the Kv7.1/KCNE1 channel complex that allows for highly specific pharmacological targeting” (Nature Communications, 2016)
